“Also recorded” adds a separate entry of the source.
T1: myeloperoxidase (Homo sapiens, UniProt P05164)
T1 construct: endogenous in cells; host or cells: HL60 cells (endogenous enzyme, purified in house)
T1 sequence (P05164 49-745): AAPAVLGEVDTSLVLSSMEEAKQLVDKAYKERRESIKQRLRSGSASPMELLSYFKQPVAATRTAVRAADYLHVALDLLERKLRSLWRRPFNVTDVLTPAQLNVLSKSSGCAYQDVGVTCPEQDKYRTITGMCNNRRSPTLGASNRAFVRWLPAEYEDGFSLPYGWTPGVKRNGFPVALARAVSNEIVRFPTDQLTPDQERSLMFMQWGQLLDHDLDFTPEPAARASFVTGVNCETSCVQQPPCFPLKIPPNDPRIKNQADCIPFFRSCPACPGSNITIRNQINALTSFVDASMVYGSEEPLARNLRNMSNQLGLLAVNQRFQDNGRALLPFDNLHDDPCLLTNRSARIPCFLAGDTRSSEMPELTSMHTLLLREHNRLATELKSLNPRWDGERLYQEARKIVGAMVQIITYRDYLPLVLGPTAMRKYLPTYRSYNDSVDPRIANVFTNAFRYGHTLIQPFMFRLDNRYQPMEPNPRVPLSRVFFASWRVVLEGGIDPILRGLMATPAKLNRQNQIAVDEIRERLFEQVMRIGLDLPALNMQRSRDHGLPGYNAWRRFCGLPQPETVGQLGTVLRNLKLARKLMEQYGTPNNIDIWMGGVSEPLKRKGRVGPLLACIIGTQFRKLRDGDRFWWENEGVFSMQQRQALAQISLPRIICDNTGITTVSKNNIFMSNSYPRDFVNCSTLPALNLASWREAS

T2: eosinophil peroxidase (Sus scrofa, UniProt P80550)
T2 construct: purchased ExOxEmis (Little Rock, Ark.)
T2 sequence (P80550 143-704): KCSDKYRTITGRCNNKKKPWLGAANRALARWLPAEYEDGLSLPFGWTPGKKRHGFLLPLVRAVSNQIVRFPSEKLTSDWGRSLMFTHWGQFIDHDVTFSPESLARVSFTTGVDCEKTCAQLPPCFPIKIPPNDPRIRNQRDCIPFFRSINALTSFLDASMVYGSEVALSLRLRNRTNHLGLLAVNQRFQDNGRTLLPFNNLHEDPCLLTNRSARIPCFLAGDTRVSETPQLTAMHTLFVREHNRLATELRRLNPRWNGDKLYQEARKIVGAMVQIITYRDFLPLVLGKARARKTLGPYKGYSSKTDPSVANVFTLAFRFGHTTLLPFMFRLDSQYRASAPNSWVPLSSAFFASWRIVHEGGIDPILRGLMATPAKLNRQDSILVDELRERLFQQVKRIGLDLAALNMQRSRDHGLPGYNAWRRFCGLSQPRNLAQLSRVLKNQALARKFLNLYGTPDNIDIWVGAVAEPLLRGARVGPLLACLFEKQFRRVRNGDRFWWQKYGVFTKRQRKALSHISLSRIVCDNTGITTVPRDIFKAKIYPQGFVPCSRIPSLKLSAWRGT

B1: catalase: a peroxide scavenger (protein, UniProt P04040 2-527, looked up)
Catalase: ADSRDPASDQMQHWKEQRAAQKADVLTTGAGNPVGDKLNVITVGPRGPLLVQDVVFTDEMAHFDRERIPERVVHAKGAGAFGYFEVTHDITKYSKAKVFEHIGKKTPIAVRFSTVAGESGSADTVRDPRGFAVKFYTEDGNWDLVGNNTPIFFIRDPILFPSFIHSQKRNPQTHLKDPDMVWDFWSLRPESLHQVSFLFSDRGIPDGHRHMNGYGSHTFKLVNANGEAVYCKFHYKTDQGIKNLSVEDAARLSQEDPDYGIRDLFNAIATGKYPSWTFYIQVMTFNQAETFPFNPFDLTKVWPHKDYPLIPVGKLVLNRNPVNYFAEVEQIAFDPSNMPPGIEASPDKMLQGRLFAYPDTHRHRLGPNYLHIPVNCPYRARVANYQRDGPMCMQDNQGGAPNYYPNSFGAPEQQPSALEHSIQYSGEVRRFNTANDDNVTQVRAFYVNVLNEEQRKRLCENIAGHLKDAQIFIQKKAVKNFTEVHPDYGSHIQALLDKYNAEKPKNAIHTFVQSGSHLAAREKANL

Experiments:
[1] = Generation of N-acetyl-L-3-bromotyrosine by the HOCl-Cl^−-Br^− system (reverse-phase HPLC)
Method: Reaction conditions. Reactions were carried out for 60 min at 37° C. in buffer A (100 mM NaCl, 50 mM sodium phosphate, 100 μM diethylenetriaminepentaacetic acid (DTPA)) supplemented with 1 mM N-acetyl-L-tyrosine and either 50 μM hypohalous acid or 3 nM peroxidase and 50 μM H2O2. Buffer A was passed over a Chelex resin column prior to use to remove redox active transition metal ions. Reactions were initiated by the addition of oxidant and terminated with 0.1 mM methionine. Reverse-phase HPLC analyses of halogenated amino acids. Analyses were performed using a flow rate of 1 mL/min and an Ultrasphere ODS reverse-phase column (4.6 mm×25 cm; 5 μm; Beckman Instruments; Berkeley, Calif.) coupled to a Waters 484 Tunable Absorbance Detector with monitoring at 275 nm. Solvent A was 0.1% trifluoroacetic acid (TFA, pH 2.5), and solvent B was 0.1% TFA in methanol (pH 2.5). The gradient profile was: isocratic elution at 66:34 (v/v) A:B over 2.1 min; linear increase of B from 34% to 40% over 30 min; isocratic elution at 60:40 A:B for 3 min; increase of B from 40% to 100% over 2 min; and isocratic elution at 100% B for 3 min. Products were quantified using integrated peak areas by comparison to standard curves of authentic N-Ac-chlorotyrosine and N-Ac-bromotyrosine.

myeloperoxidase = target: T1, myeloperoxidase; assay: Generation of N-acetyl-L-3-bromotyrosine by the myeloperoxidase-H2O2-Cl^−-Br^− system (reverse-phase HPLC); format: biochemical; conditions: for effect on bromination of N-acetyl-L-tyrosine by myeloperoxidase: acidic (pH 5.9) and neutral conditions; for effect on bromination by the myeloperoxidase-H2O2-Cl^−-Br^− system: mildly acidic conditions (pH 5.9)
Method: (§1) General procedures. Myeloperoxidase was purified from HL60 cells (ref. 19). Enzyme was apparently pure as assessed by its absorption spectrum (A430/A280 ratio>0.8), SDS-PAGE, and peroxidase activity gel electrophoresis (ref. 20). Porcine eosinophil peroxidase (A415/A280>0.9) was from ExOxEmis (Little Rock, Ark.). Chloride-free NaOCl and HOBr were prepared by conventional procedures as described previously (refs. 21,22). Peritoneal white blood cells were elicited with intraperitoneal (i.p.) injection of 4% thioglycollate and harvested 24 h after injection (ref. 23). SDS-PAGE was performed using 10% Bis-Tris NuPAGE gels (Invitrogen; Carlsbad, Calif.). The separated proteins were transferred onto a nitrocellulose membrane, which was blocked overnight at 4° C. with 5% milk and 0.05% Tween-20 in phosphate-buffered saline (PBS; 10 mM phosphate, 138 mM NaCl, 2.7 mM KCl, pH 7.4). The blot was then incubated (1 h) with rabbit anti-mouse myeloperoxidase antibody (1:1,000) followed by goat anti-rabbit immunoglobulin antibody (1:10,000; Santa Cruz Biotechnology; Santa Cruz, Calif.) conjugated with horseradish peroxidase. West Pico chemiluminescent substrate (Pierce; Rockford, Ill.) was added, and the membrane was exposed to autoradiography film and developed.
Reaction conditions. Reactions were carried out for 60 min at 37° C. in buffer A (100 mM NaCl, 50 mM sodium phosphate, 100 μM diethylenetriaminepentaacetic acid (DTPA)) supplemented with 1 mM N-acetyl-L-tyrosine and either 50 μM hypohalous acid or 3 nM peroxidase and 50 μM H2O2. Buffer A was passed over a Chelex resin column prior to use to remove redox active transition metal ions. Reactions were initiated by the addition of oxidant and terminated with 0.1 mM methionine.
Reverse-phase HPLC analyses of halogenated amino acids. Analyses were performed using a flow rate of 1 mL/min and an Ultrasphere ODS reverse-phase column (4.6 mm×25 cm; 5 μm; Beckman Instruments; Berkeley, Calif.) coupled to a Waters 484 Tunable Absorbance Detector with monitoring at 275 nm. Solvent A was 0.1% trifluoroacetic acid (TFA, pH 2.5), and solvent B was 0.1% TFA in methanol (pH 2.5). The gradient profile was: isocratic elution at 66:34 (v/v) A:B over 2.1 min; linear increase of B from 34% to 40% over 30 min; isocratic elution at 60:40 A:B for 3 min; increase of B from 40% to 100% over 2 min; and isocratic elution at 100% B for 3 min. Products were quantified using integrated peak areas by comparison to standard curves of authentic N-Ac-chlorotyrosine and N-Ac-bromotyrosine.

eosinophil peroxidase = target: T2, eosinophil peroxidase; assay: Generation of N-acetyl-L-3-bromotyrosine by the eosinophil peroxidase-H2O2-Cl^−-Br^− system (reverse-phase HPLC); format: biochemical, Porcine
Method: as §1, with “The blot was then incubated (1 h) with rabbit anti-mouse myeloperoxidase antibody (1:1,000) followed by goat anti-rabbit immunoglobulin antibody (1:10,000; Santa Cruz Biotechnology; Santa Cruz, Calif.) conjugated with horseradish peroxidase. West Pico chemiluminescent substrate (Pierce; Rockford, Ill.) was added, and the membrane was exposed to autoradiography film and developed.” left out
Reverse-phase HPLC analyses of halogenated amino acids. Analyses were performed using a flow rate of 1 mL/min and an Ultrasphere ODS reverse-phase column (4.6 mm×25 cm; 5 μm; Beckman Instruments; Berkeley, Calif.) coupled to a Waters 484 Tunable Absorbance Detector with monitoring at 275 nm. […] Products were quantified using integrated peak areas by comparison to standard curves of authentic N-Ac-chlorotyrosine and N-Ac-bromotyrosine.

Klebsiella pneumoniae = assay: Bacterial killing by myeloperoxidase; format: cell-based
Method: Bacterial killing. The bactericidal activity of myeloperoxidase was quantified by conventional procedures as described previously (ref. 27). Briefly, Klebsiella pneumoniae were cultured in Luria-Bertani broth to mid-log growth phase, washed with PBS, and used at 10^9 bacteria/mL. Bacteria were incubated with 5 nM enzyme, 5 nM H2O2, and 100 mM NaCl in PBS (pH 5.5) for 15 min at 37° C. Serial dilutions were immediately spread on agar plates and the colony forming units determined after overnight incubation at 37° C.

[2] = mildly acidic conditions (pH 5.9)
[3] = neutral conditions (pH 7), taurine 200 μM

Row | Molecule | effect on formation of N-acetyl-L-3-bromotyrosine by the HOCl-Cl^−-Br^− system [1, 2] | effect on formation of N-acetyl-L-3-bromotyrosine by the HOCl-Cl^−-Br^− system [1, 3] | effect on bromination of N-acetyl-L-tyrosine by myeloperoxidase (myeloperoxidase) | effect on bromination by the myeloperoxidase-H2O2-Cl^−-Br^− system (myeloperoxidase) | effect on bromination by the myeloperoxidase-H2O2-Cl^−-Br^− system (myeloperoxidase; listed as Taurine) | effect on N-acetyl-L-3-bromotyrosine formation by the myeloperoxidase-H2O2-Cl^−-Br^− system (myeloperoxidase; [3]) | effect on production of N-acetyl-L-3-bromotyrosine by the eosinophil peroxidase-H2O2-Cl^−-Br^− system (eosinophil peroxidase; [2]) | effect on N-acetyl-L-3-bromotyrosine formation by the eosinophil peroxidase-H2O2-Cl^−-Br^− system (eosinophil peroxidase; [3]) | bacteria killing (dead) (Klebsiella pneumoniae; 1 μM Br added to the complete myeloperoxidase-H2O2-Cl^− system) | effect on bacteria killing (Klebsiella pneumoniae; 10 μM Br^− added to the complete myeloperoxidase-H2O2-Cl^− system)
1 | NCCS(=O)(=O)O [taurine] | inhibited | completely inhibited | inhibited | almost completely inhibited | inhibited | only partially inhibited; also recorded: only partly inhibited | failed to affect | little affect |  | 
2 | Br [Br^−, bromide] |  |  |  |  |  |  |  |  | 72% | completely inhibitory
3 | B1 |  |  | inhibited |  |  |  |  |  |  | 
